The source of these data is patent US20230248659A1, “IMMUNE SUPPRESSING NANOPARTICLES FOR ROBUST SENSITIZATION OF DRUG-RESISTANT CANCER” (King Abdulaziz City for Science and Technology ( KACST), priority 2021, published 2023).

This test relates to MDA-MB-231 cells. Nature of the test: LPS-mediated DOX resistance, AlamarBlue cell viability assay. The settings on record: Homo sapiens. Format: cell-based. The protocol: LPS ability to mediate DOX-resistance was examined to simulate the MDR phenotype of MDA-MB-231. Herein, there is compared the sensitivity of non-stimulated MDA-MB-231 cells and LPS-stimulated cells at an optimized migratory concentration of LPS (20 µg/mL) to DOX treatment. AlamarBlue cell viability assay was used to evaluate the ability of LPS activation to induce DOX resistance. […] On the contrary, LPS-stimulated cells were 64±4% viable after 24 hr of DOX-treatment. Remarkably, pretreatment with LPS for 24 hr was clearly able to reduce chemosensitivity, lessen DOX cytotoxicity, and increase cell survival approximately to 6-fold (p-value <0.0005) after 48 hr treatment. These quantitative results provide strong evidence of inflammation-based MDR mechanism specifically to DOX treatment in MDA-MB-231 cells.
MDA-MB-231 cells were plated out in 96-well tissue culture plates at 1 ×10^4 cells per well and treated with or without LPS at concentration of (20 µg/mL) for 24 hr. Cells were then left untreated or treated simultaneously with (0.67 µg/mL) of the chemotherapeutic drug (DOX) and various doses of CS-TPP-HA-AGP NPs (50, 100, and 300 µg/ml). After further incubation for 48 or 72 hr, Cells were subjected to AlamarBlue cell viability assay. […] Fluorescence spectra were recorded at λex:550, λem:600 using BioTek Cytation 5™ multi-mode Microplate Reader-Gen5™ software.
For orientation: The colour change of resazurin is a common sign of viable cells or microbes.

Like-named read-outs stand apart in the source and are kept apart here.

By viability is commonly meant a per cent measure of how many cells are alive, often set against a control. Consider `COc1cccc2c1C(=O)c1c(O)c3c(c(O)c1C2=O)C[C@@](O)(C(=O)CO)C[C@@H]3O[C@H]1C[C@H](N)[C@H](O)[C@H](C)O1` [DOX, doxorubicin], for which the viability at 0.67 µg/mL runs as follows: (MDA-MB-231, 24 h, read-out: cell viability) 64 ± 4%; (MDA-MB-231, read-out: cell viability) 11 ± 10%.
